According to patent publication US10023536B2, “Suprametallogels and uses thereof” (Massachusetts Institute of Technology, priority 2014, dated 2018):

Test system: HeLa cells
Assay: Cytotoxicity of the gel components against HeLa cells (MILLIQ water as control)
Type: cell-based
Conditions: components of the gel tested separately
Description: FIG. 27: cytotoxicities of (1) a gel formed from C-2 and Fe^2+ (“gel”), (2) PEG, and (3) Fe^2+ (“Fe”) against HeLa cells. MILLIQ water (“milliQ”) used as a control.
Because C-2 forms gels with Fe^2+ salts, which are biocompatible, these gels may have applications as therapeutic devices. First, the cytotoxicity of these gels was tested on HeLa cells to determine the effect of the components of the gels on cell viability. Due to the difficulty in assessing the toxicity of gel materials, the components of the gels were tested separately.

For iron, the “cytotoxicity compared to MILLIQ water” value was “little cytotoxicity”.
